The assay has as its target T1, rWbGST (Wuchereria bancrofti, UniProt Q86LL8).
T1 construct: about 28 kDa with tag
T1 sequence (Q86LL8 1-208): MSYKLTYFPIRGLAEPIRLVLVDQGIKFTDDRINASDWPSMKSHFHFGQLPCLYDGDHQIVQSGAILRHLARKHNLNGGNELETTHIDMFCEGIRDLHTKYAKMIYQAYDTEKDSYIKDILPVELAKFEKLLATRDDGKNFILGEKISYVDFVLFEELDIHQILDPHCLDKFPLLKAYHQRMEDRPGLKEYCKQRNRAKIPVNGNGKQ
Kind of assay: spectrophotometric conjugation assay at […] nm. It counts as biochemical. To be noted: 1.0 mM CDNB, 1.0 mM GSH, 100 mM phosphate, pH 6.5; only specific activity printed.

In the case of `O=[N+]([O-])c1ccc(Cl)c([N+](=O)[O-])c1` [CDNB, 1-chloro-2,4-dinitrobenzene], the “spectrophotometric conjugation assay at 340 nm” value is “GST enzyme activity was determined using CDNB and GSH substrates”.

For the origin of these results see PMC2685978, “Evaluation of Wuchereria bancrofti GST as a Vaccine Candidate for Lymphatic Filariasis” (PLoS Neglected Tropical Diseases, 2009).
